Measurements as given in article PMC7015555, “Transthyretin-Binding Activity of Complex Mixtures Representing the Composition of Thyroid-Hormone Disrupting Contaminants in House Dust and Human Serum” (Environmental Health Perspectives, 2020).
Like-named read-outs stand apart in the source and are kept apart here.

Columns and labels:
TTR [1] = conditions: cited from earlier work; for IC50: read-out: IC50 (M), Radioactive Ligand Binding Assay data from the literature; for REP, Radioactive Ligand Binding Assay data from the literature: relative effect potency; for T4-TTR binding inhibition in the RLBA: at 10 µM (highest concentration)
TTR [2] = target: TTR (Homo sapiens, UniProt P02766); assay: FITC-T4 TTR competitive binding assay; conditions: for REP (relative potency compared to T4): IC20 of T4 / IC20 of compound (Equation 14); for IC50: read-out: IC50; for T4EQ concentration (nmol/g dust): reported concentration of the compound in SRM2585 dust x REP; for maximum competitive potency at high test concentrations: Figure 1C; for inhibition of FITC-T4-TTR-binding: present study (Figure 1C)
[3] = inhibitor-TTR dissociation constant converted from IC20 (Equation 4), 4°C, read-out: Ki
[4] = 20% inhibition of FITC-T4 binding to TTR, 30 nM TTR, 110 nM FITC-T4, 2 h at 4°C, pH 8.0
[5] = individual compounds, 30 nM TTR, 110 nM FITC-T4, 2 h at 4°C, pH 8.0, — = 50% inhibition level not reached (footnote g)

Row | Structure (SMILES) | REP (relative potency compared to T4) (TTR [2]) | Ki (TTR [2]; [3]) [nM] | IC20 (TTR [2]; pH 8) [nM] | IC50 (TTR [2]) [nM] | IC50 (TTR [1]; ref Weiss et al. 2015) [M] | REP, Radioactive Ligand Binding Assay data from the literature (TTR [1]; ref Weiss et al. 2015) | IC20 (TTR [2]; [4]) [nM] | IC50 (TTR [2]; [5]) [nM] | T4EQ concentration (nmol/g dust) (TTR [2]) | Ki (TTR [2]) [nM] | further results
1 | CCCOC(=O)c1ccc(O)cc1 [Propylparaben, propyl 4-hydroxybenzoate] | 0.0039 | 12000 | 5500 | 19000 | – | – | – | – | – | – | IC50 (TTR [1]; ref Zhang et al. 2015): 1.9e-05 M; REP, Radioactive Ligand Binding Assay data from the literature (TTR [1]; ref Zhang et al. 2015): 0.0038
2 | CC(C)(c1cc(Br)c(O)c(Br)c1)c1cc(Br)c(O)c(Br)c1 [TBBPA, tetrabromo-bisphenol-A] | 1.5 | – | – | – | 3.1e-08 | 1.6 | 14 | 34 | 0.586 | – | Ki (TTR [2]; read-out: Ki): 17 nM
3 | Oc1cc(Oc2ccc(Br)cc2Br)c(Br)cc1Br [5-OH-BDE-47, 5-OH-2,2ʹ,4,4ʹ-tetrabromodiphenyl ether] | 1.5 | 16 | – | – | 2.5e-08 | 3 | 14 | 27 | – | – | –
4 | Oc1c(Cl)cc(-c2ccc(Cl)c(Cl)c2)c(Cl)c1Cl [4-OH-CB-107, 4-OH-2,3,3ʹ,4ʹ,5-pentachlorobiphenyl] | 0.63 | 59 | – | – | 2.26e-08 | 3.5 | 34 | 68 | – | – | –
5 | O=C(O)C(F)(F)C(F)(F)C(F)(F)C(F)(F)C(F)(F)C(F)(F)C(F)(F)C(F)(F)C(F)(F)F [PFDA, perfluorodecanoic acid] | 0.012 | – | – | – | 8.95e-06 | 0.007 | 1700 | 5400 | 0.001 | – | Ki (TTR [2]; read-out: Ki): 3700 nM
6 | Oc1c(Br)cc(Br)cc1Br [2,4,6-TBP, 2,4,6-tribromophenol] | 2.4 | – | 8.9 | 29 | 4.8e-09 | 10 | – | – | – | 5.5 | –
7 | O=S(=O)(O)C(F)(F)C(F)(F)C(F)(F)C(F)(F)C(F)(F)C(F)(F)C(F)(F)C(F)(F)F [PFOS, perfluorooctane sulfonic acid] | 0.26 | – | – | – | 9.4e-07 | 0.065 | 82 | 250 | 1.201 | – | Ki (TTR [2]; read-out: Ki): 160 nM
8 | CCCCCCCCCc1ccc(O)cc1 [4-Nonylphenol, 4-nonylphenol] | 0.012 | – | 1800 | 16000 | 1e-05 | 0.008 | – | – | 0.946 | 3900 | –
9 | Clc1cc(Cl)c(-c2cc(Cl)c(Cl)cc2Cl)cc1Cl [CB-153, 2,2ʹ,4,4ʹ,5,5ʹ-hexachlorobiphenyl] | 0.27 | – | 77 | 180 | > 1.5e-05 | <0.0037 | – | – | 0.030 | 150 | REP, Radioactive Ligand Binding Assay data from the literature (TTR [1]; ref Hamers et al. (2011)): <0.0037; pIC50 in the RLBA (TTR [1]; –log(IC50), ref Excel Table S1): < 4.8; maximum competitive potency at high test concentrations (TTR [2]): leveled off before reaching complete inhibition
11 | O=C(O)C(F)(F)C(F)(F)C(F)(F)C(F)(F)C(F)(F)C(F)(F)C(F)(F)F [PFOA, perfluorooctanoic acid] | 0.043 | – | 490 | 1100 | 9.49e-07 | 0.064 | – | – | 0.060 | 1100 | –
12 | O=C(O)C(F)(F)C(F)(F)C(F)(F)C(F)(F)C(F)(F)C(F)(F)F [PFHpA, perfluoroheptanoic acid] | 0.071 | – | 300 | 1200 | 1.57e-06 | 0.039 | – | – | 0.048 | 640 | –
13 | Brc1ccc(Oc2ccc(Br)cc2Br)c(Br)c1 [BDE-47, 2,2ʹ,4,4ʹ-tetrabromodiphenyl ether] | 0.10 | – | 210 | 1300 | 3.6e-05 | 0.0025 | – | – | 0.103 | 440 | –
14 | NS(=O)(=O)C(F)(F)C(F)(F)C(F)(F)C(F)(F)C(F)(F)C(F)(F)C(F)(F)C(F)(F)F [FOSA, perfluorooctane sulfonamide] | 0.11 | 400 | 190 | 730 | 6.12e-06 | 0.01 | – | – | 0.002 | – | –
15 | Oc1cc(Br)cc(Br)c1Oc1cc(Br)c(Br)cc1Br [6ʹ-OH-BDE-99, 6ʹ-OH-2,2ʹ,4,4ʹ,5-pentabromodiphenyl ether] | 2.5 | 4.5 | – | – | – | – | 8.4 | 20 | – | – | REP, Radioactive Ligand Binding Assay data from the literature (TTR [1]; ref Marchesini et al. 2008): 0.2
16 | Brc1ccc(Oc2cc(Br)c(Br)cc2Br)c(Br)c1 [BDE-99, 2,2ʹ,4,4ʹ,5-pentabromodiphenyl ether] | 0.29 | – | 73 | – | – | – | – | – | 0.458 | 150 | T4-TTR binding inhibition in the RLBA (TTR [1]; ref Hamers et al. 2006): <20% inhibition at 10 µM (Hamers et al. 2006); maximum competitive potency at high test concentrations (TTR [2]): leveled off before reaching complete inhibition; inhibition of FITC-T4-TTR-binding (TTR [2]): > 20%
17 | O=C(O)C(F)(F)C(F)(F)C(F)(F)C(F)(F)C(F)(F)C(F)(F)C(F)(F)C(F)(F)F [PFNA, perfluorononanoic acid] | 0.059 | – | – | – | 2.74e-06 | 0.022 | 360 | 1100 | 0.013 | – | Ki (TTR [2]; read-out: Ki): 770 nM
18 | Clc1ccc(-c2cc(Cl)c(Cl)cc2Cl)cc1Cl [CB-118, 2,3ʹ,4,4ʹ,5-pentachlorobiphenyl] | 0.14 | 320 | 160 | 560 | – | – | – | – | 0.011 | – | T4-TTR binding inhibition in the RLBA (TTR [1]; ref Hamers et al. 2011): <20% inhibition at 10 µM (Hamers et al. 2011); inhibition of FITC-T4-TTR-binding (TTR [2]): > 20%
19 | Oc1c(Cl)c(Cl)c(-c2cc(Cl)c(Cl)cc2Cl)c(Cl)c1Cl [4-OH-CB-187, 4-OH-2,2ʹ,3,4ʹ,5,5ʹ,6-heptachlorobiphenyl] | 2.6 | 4 | – | – | 1.98e-08 | 4 | 8.2 | 17 | – | – | –
20 | O=C(O)C(F)(F)C(F)(F)C(F)(F)C(F)(F)C(F)(F)C(F)(F)C(F)(F)C(F)(F)C(F)(F)C(F)(F)F [PFUnDA, perfluoroundecanoic acid] | 0.021 | – | – | – | 2.16e-05 | 0.003 | 1000 | 3100 | 0.002 | – | Ki (TTR [2]; read-out: Ki): 2200 nM
